Values of other authors, collected in patent US11285107B2, “Process for manufacturing porous silica particles loaded with at least one bioactive compound adapted for lung, nasal, sublingual, and/or pharyngeal delivery” (Nanologica AB, priority 2017, dated 2022).

| Structure (SMILES) | solubility in water |
| --- | --- |
| NCC(=O)Nc1ccc(-n2nc(C(F)(F)F)cc2-c2ccc3c(ccc4ccccc43)c2)cc1 [OSU-03012, 2-amino-N-(4-(5-(phenanthren-2-yl)-3-(trifluoromethyl)-1H-pyrazol-1-yl)phenyl)acetamide] | insoluble in water |
| CCN(CC)CCNC(=O)c1cc(Cl)c(N)cc1OC [metoclopramide] | > 6000 µg/mL |
